{
  "source": "patent US12329736B2",
  "about": "“Carboxylate ligand modified ferric iron hydroxide compositions for use in the treatment or prevention of iron deficiency associated with liver diseases” (Nemysis Ltd., priority 2020, dated 2025)",
  "conditions": "Wistar rats",
  "note": "Entries after “also recorded” stand apart in the source; their conditions may differ.",
  "excerpt": "5-6 week old Wistar rats (n=72; 36 female and 36 male) were housed in harmonious social groups (2-3 animals per cage and sex) in a light- and temperature-controlled room with ad libitum access to standard pellet diet and water. Rats were acclimatised for 7 days for male rats and 14 days for female rats, prior to treatment commencement.\nAnimals were gavaged for 28 days (n=36; 18 female and 18 male) or 90 days (n=36; 18 female and 18 male). Following necropsy, livers were harvested, flash frozen in liquid nitrogen and stored at −80° C. until further analysis.\nLivers were thawed at room temperature, and a sample of approximately 800 mg was cut out, cleaned from any fat and weighed on a balance accurate to 0.0001 g. Weighed samples were digested in concentrated HNO3 (Nitric acid ≥65%, 84380-2.5L-M, Merck) and H2O2 (Hydrogen peroxide solution, 16911-1L-F, Sigma-Aldrich) at a 5:1 ratio. Samples were digested at room temperature for 24 h and if necessary at 40° C. for another 24 h to allow complete digestion. Following complete digestion samples were diluted 1:4 in UHP water to achieve a final HNO3 concentration of 6-8%. Total elemental analysis for iron was carried out on a Jobin Yvon Horiba Ultima 2C ICP-OES (Instrument SA, Longjumeau, France), equipped with a concentric nebulizer and cyclonic spray chamber. Analysis was by peak profile with a window size of 0.025 nm with 21 increments per profile and an integration time of 0.5 seconds per increment. Analytical line was 259.940 nm. Samples and blanks were analysed with iron standards (0-20 mg/L) prepared in 6-8% HNO3, using a 1000 mg/L Fe ICP solution. Pooled-sample standards (0-20 mg/L) were prepared, using a pool of all final digests, to allow detection of possible matrix effects. Each sample/blank/standard was analysed in triplicates and the average value used for the calculations. The sample induction system (sample tubing, nebuliser and spray chamber) was thoroughly flushed between samples, blanks and standards.\nStatistical analyses were performed in GraphPad Prism 6. One-way ANOVA, followed by Tukey's multiple comparison's test, was used to assess the treatment effect, irrespective of the length of treatment. Two-way ANOVA was used to assess the effects of time (i.e. treatment length), treatment and the time x treatment interactions, followed by Bonferroni's multiple comparisons test. Two-way ANOVA was also used to assess the effect of sex, treatment and the sex x treatment interaction. P values <0.05 were considered significant in all analyses. Data are presented as means±SDs.",
  "data": [
    {"smiles": "O=S(=O)([O-])[O-].[Fe+2]", "note": "[FeSO4, ferrous sulphate]", "values": [
      {"measurement": "Accumulation of liver iron over time with repeated oral dosing", "setting": "28 days versus 90 days of oral administration, FIG. 1B", "result": "iron seems to accumulate over time; also recorded: does accumulate"},
      {"measurement": "Total iron content in liver samples versus vehicle control group", "setting": "daily oral gavage 28 or 90 days, IHAT 28.5 mg iron/kg, FeSO4 20.00 mg iron/kg, FIG. 1A", "result": "significantly increased; also recorded: significant difference"}
    ]}
  ]
}
